ChEMBL document CHEMBL1201862, “PubChem BioAssay data set” (2004)
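The compound was tested at five concentrations on cells cultured in 96-well plates, with a 48-hour exposure period. Here, GI50 denotes the concentration required for 50% inhibition of growth.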 Active and inactive are the calls of the source. No stated cut-off is given here; in the data, active = GI50 up to about 1.1 µM and inactive = higher.

Columns and labels:
Assay in all cases: NCI-60 cell line screen, 48 h
PC-3 = tested on: PC-3
RPMI-8226 = tested on: RPMI-8226
MCF7 = tested on: MCF7
HCT-116 = tested on: HCT-116
NCI/ADR-RES = tested on: NCI/ADR-RES
OVCAR-3 = tested on: OVCAR-3
NCI-H522 = tested on: NCI-H522
U-251 = tested on: U-251
SK-OV-3 = tested on: SK-OV-3
UACC-62 = tested on: UACC-62
HL-60 = tested on: HL-60
SK-MEL-2 = tested on: SK-MEL-2
LOX IMVI = tested on: LOX IMVI
SN12C = tested on: SN12C
SW-620 = tested on: SW-620
MDA-MB-231 = tested on: MDA-MB-231
COLO 205 = tested on: COLO 205
786-0 = tested on: 786-0
OVCAR-4 = tested on: OVCAR-4
UO-31 = tested on: UO-31

| SMILES | GI50 (PC-3) | GI50 (RPMI-8226) | GI50 (MCF7) | GI50 (HCT-116) | GI50 (NCI/ADR-RES) | GI50 (OVCAR-3) | GI50 (NCI-H522) | GI50 (U-251) | GI50 (SK-OV-3) | GI50 (UACC-62) | GI50 (HL-60) | GI50 (SK-MEL-2) | GI50 (LOX IMVI) | GI50 (SN12C) | GI50 (SW-620) | GI50 (MDA-MB-231) | GI50 (COLO 205) | GI50 (786-0) | GI50 (OVCAR-4) | GI50 (UO-31) |
| --- | --- | --- | --- | --- | --- | --- | --- | --- | --- | --- | --- | --- | --- | --- | --- | --- | --- | --- | --- | --- |
| O=[N+]([O-])c1ccc2c3ccccc3[s+]([O-])c2c1 (stereo not drawn) | > 100 µM (inactive) | > 100 µM (inactive) | 74 µM (inactive) | > 100 µM (inactive) | > 100 µM (inactive) | 33 µM (inactive) | > 100 µM (inactive) | > 100 µM (inactive) | > 100 µM (inactive) | > 100 µM (inactive) | 88.5 µM (inactive) | > 100 µM (inactive) | > 100 µM (inactive) | > 100 µM (inactive) | 72.4 µM (inactive) | > 100 µM (inactive) | 63.7 µM (inactive) | > 100 µM (inactive) | > 100 µM (inactive) |  |
| CC1(C)COC(c2ccccc2-c2ccccc2)=N1 | > 100 µM (inactive) | > 100 µM (inactive) | > 100 µM (inactive) | > 100 µM (inactive) | > 100 µM (inactive) | > 100 µM (inactive) | 38.7 µM (inactive) | 89.5 µM (inactive) | > 100 µM (inactive) | 54.6 µM (inactive) | > 100 µM (inactive) | > 100 µM (inactive) |  | > 100 µM (inactive) | > 100 µM (inactive) | 56.6 µM (inactive) | > 100 µM (inactive) | > 100 µM (inactive) | > 100 µM (inactive) | 67.6 µM (inactive) |
| COc1ccc(CNc2nc(NCc3ccc(OC)cc3)nc(N3CCOCC3)n2)cc1 | 4.05 µM (inactive) | 1.69 µM (inactive) | 4.15 µM (inactive) | 4.49 µM (inactive) | 2.84 µM (inactive) | 2.44 µM (inactive) | 3.95 µM (inactive) | 4.43 µM (inactive) | 8.83 µM (inactive) | 3.58 µM (inactive) | 2.74 µM (inactive) | > 100 µM (inactive) |  | 5.37 µM (inactive) | 4.25 µM (inactive) | 6.12 µM (inactive) | 3.91 µM (inactive) | 5.25 µM (inactive) | 15.5 µM (inactive) | 62.8 µM (inactive) |
| O=C1CCc2c3c(c4c([nH]c5ccccc54)c2CC1)C(=O)NC3=O | 2.05 µM (inactive) | 3.38 µM (inactive) | 2.97 µM (inactive) | 2.05 µM (inactive) | 16.4 µM (inactive) | 3.51 µM (inactive) | 0.766 µM (active) | 4.55 µM (inactive) |  | 4.45 µM (inactive) | 0.671 µM (active) | 2.7 µM (inactive) | 1.18 µM (inactive) | 4.32 µM (inactive) | 0.815 µM (active) | 25.3 µM (inactive) | 0.63 µM (active) | 11.7 µM (inactive) | 2.08 µM (inactive) | 0.998 µM (active) |
| COC(=O)CNC(=O)C(CSC(=O)OCC1c2ccccc2-c2ccccc21)NC(=O)CCC(NC(=O)OCC1c2ccccc2-c2ccccc21)C(=O)OC (stereo not drawn) | 30.8 µM (inactive) | 23.1 µM (inactive) | 18.5 µM (inactive) | 17.5 µM (inactive) | 41 µM (inactive) | 18.1 µM (inactive) | 4.65 µM (inactive) |  | 30.3 µM (inactive) |  | 19.1 µM (inactive) | 16.9 µM (inactive) | 3.27 µM (inactive) | > 100 µM (inactive) | 55.2 µM (inactive) | 16.6 µM (inactive) | 29.4 µM (inactive) | 13.7 µM (inactive) | 16.9 µM (inactive) | 18.7 µM (inactive) |
| O=[N+]([O-])c1ccc(/C=N/CC2CCCN3CCCCC23)cc1 (stereo not drawn) | > 100 µM (inactive) | 17.3 µM (inactive) | 24 µM (inactive) | 58.6 µM (inactive) | > 100 µM (inactive) |  | > 100 µM (inactive) | 40.6 µM (inactive) | > 100 µM (inactive) | > 100 µM (inactive) | 26.7 µM (inactive) | > 100 µM (inactive) | 15.5 µM (inactive) | > 100 µM (inactive) | 32.2 µM (inactive) | > 100 µM (inactive) | 50.9 µM (inactive) | 22.8 µM (inactive) | > 100 µM (inactive) | 34.2 µM (inactive) |
| CCOC(=O)/C(=C/NC(=S)Nc1c(CC)cccc1C(C)(C)C)C(=O)c1ccccc1 | > 100 µM (inactive) | 88.9 µM (inactive) | 88.9 µM (inactive) | > 100 µM (inactive) | > 100 µM (inactive) |  | > 100 µM (inactive) | > 100 µM (inactive) | > 100 µM (inactive) | > 100 µM (inactive) | 59.3 µM (inactive) | > 100 µM (inactive) | > 100 µM (inactive) | > 100 µM (inactive) | > 100 µM (inactive) | > 100 µM (inactive) | > 100 µM (inactive) | > 100 µM (inactive) | > 100 µM (inactive) | 14.7 µM (inactive) |
| O=C1NC(=S)N/C1=C\c1ccc(Sc2ccccc2C(=O)O)s1 | > 100 µM (inactive) | > 100 µM (inactive) | > 100 µM (inactive) | > 100 µM (inactive) | > 100 µM (inactive) | > 100 µM (inactive) | 22.1 µM (inactive) | > 100 µM (inactive) |  | 85.3 µM (inactive) | 44.8 µM (inactive) | > 100 µM (inactive) | > 100 µM (inactive) | > 100 µM (inactive) | > 100 µM (inactive) | > 100 µM (inactive) | > 100 µM (inactive) | > 100 µM (inactive) | > 100 µM (inactive) | > 100 µM (inactive) |
| O=C1Oc2ccccc2C(=O)/C1=C/N1C(=O)/C(=C/c2ccc([N+](=O)[O-])cc2)SC1=S | 18.2 µM (inactive) | 5.65 µM (inactive) | 35.6 µM (inactive) | 19.3 µM (inactive) | 23.7 µM (inactive) | 2.71 µM (inactive) | 20.7 µM (inactive) | 18.9 µM (inactive) | 31.5 µM (inactive) | 17.9 µM (inactive) | 36.1 µM (inactive) | 24 µM (inactive) | 29.6 µM (inactive) | 20.4 µM (inactive) | 21.8 µM (inactive) | 24.9 µM (inactive) | 20.5 µM (inactive) | 30.5 µM (inactive) | 20.8 µM (inactive) |  |
| CC(=O)N(C(=O)CC(=O)NNCc1ccccc1Cl)c1ccc(Cl)cc1 | > 10 µM (inactive) | > 10 µM (inactive) | 5.97 µM (inactive) | > 10 µM (inactive) | > 10 µM (inactive) | > 10 µM (inactive) | > 10 µM (inactive) | > 10 µM (inactive) | > 10 µM (inactive) | > 10 µM (inactive) | > 10 µM (inactive) | > 10 µM (inactive) | > 10 µM (inactive) | > 10 µM (inactive) |  | > 10 µM (inactive) | > 10 µM (inactive) | > 10 µM (inactive) | > 10 µM (inactive) | > 10 µM (inactive) |
| OCC1OC(c2cccc3cc(O)c(O)cc23)CC1O (stereo not drawn) | > 100 µM (inactive) | > 100 µM (inactive) | > 100 µM (inactive) | > 100 µM (inactive) | > 100 µM (inactive) | 94.8 µM (inactive) | > 100 µM (inactive) | > 100 µM (inactive) | > 100 µM (inactive) | > 100 µM (inactive) | 42.3 µM (inactive) | > 100 µM (inactive) | > 100 µM (inactive) | > 100 µM (inactive) | > 100 µM (inactive) | > 100 µM (inactive) |  | > 100 µM (inactive) | > 100 µM (inactive) | > 100 µM (inactive) |
| Cc1cn([C@@H]2C[C@H](CO)[C@@H]2O)c(=O)[nH]c1=O | > 100 µM (inactive) | > 100 µM (inactive) | > 100 µM (inactive) | > 100 µM (inactive) | > 100 µM (inactive) | > 100 µM (inactive) | > 100 µM (inactive) | > 100 µM (inactive) |  |  | > 100 µM (inactive) | > 100 µM (inactive) | > 100 µM (inactive) | > 100 µM (inactive) | > 100 µM (inactive) | > 100 µM (inactive) | > 100 µM (inactive) | > 100 µM (inactive) | > 100 µM (inactive) | > 100 µM (inactive) |
| COc1cc2c(cc1OCCCOc1cc3c(cc1OC)C(=O)N1CCC[C@H]1C(=O)N3)N=C[C@@H]1CCCN1C2=O | 13.6 µM (inactive) | 6.46 µM (inactive) | 4.52 µM (inactive) | 26.4 µM (inactive) | 76.7 µM (inactive) | 19.5 µM (inactive) | 1.73 µM (inactive) | 4.65 µM (inactive) |  | 6.62 µM (inactive) | 8.34 µM (inactive) | 12.6 µM (inactive) | 3.07 µM (inactive) | 15.7 µM (inactive) | 11 µM (inactive) | 14.9 µM (inactive) | 3.61 µM (inactive) | 29 µM (inactive) | 18.5 µM (inactive) | 18.5 µM (inactive) |
| N#Cc1ccc2[nH]c3c(c2c1)CC(=O)Nc1ccccc1-3 [PAULLONE 2] | > 100 µM (inactive) | > 100 µM (inactive) | > 100 µM (inactive) | 21.5 µM (inactive) | > 100 µM (inactive) | > 100 µM (inactive) | 28.8 µM (inactive) | > 100 µM (inactive) |  | > 100 µM (inactive) | > 100 µM (inactive) | > 100 µM (inactive) | > 100 µM (inactive) |  | > 100 µM (inactive) | > 100 µM (inactive) | > 100 µM (inactive) | > 100 µM (inactive) | > 100 µM (inactive) | > 100 µM (inactive) |
